# Assay results taken from patent publication US10562910B2, “Nitrogen-containing tricyclic compounds and uses thereof in medicine” (SUNSHINE LAKE PHARMA CO., LTD., priority 2016, dated 2020).
# pEC50: −log10 of the molar value.
# Columns and labels:
# [1] = Pharmacokinetics test in SD rats; type: in vivo; conditions: rat, plasma, male SD rats; for Vd: read-out: Vss; for bioavailability: po 5 mg/kg vs iv 1 mg/kg
# Experimental: Example 22 Pharmacokinetics Test
# Experimental animals: six healthy adult male SD rats (purchased from Hunan SJA Laboratory Animal Co. Ltd.) were divided into two groups, three rats in each group, and the two groups were given intravenous injection and oral administration respectively.
# Drug preparation: a quantity of a compound of the present invention was weighed, and 5% DMSO, 10% Kolliphor HS15 and 85% saline (0.9%) were added to give target concentrations of the compound solution.
# Administration and sample collection: animals were fasted for 12 h before administration, and fed at the time point of 3 hours after the administration. SD rats of one group were given intravenous injection (IV, 1 mg/kg) via hind legs and SD rats of the other group were given oral administration (PO, 5 mg/kg) respectively. Then blood was collected in the rat tail vein at the time point of 0, 0.083, 0.25, 0.5, 1, 2, 4, 6, 8, 24 h respectively, and the blood volume was about 200-400 μL/time point. After the collection of whole blood at each time point, the collected blood was set in K2EDTA anticoagulant tube, and the tube was placed in the incubator with ice packs. All samples were centrifuged for 5 min at 4° C. at 4600 r/min within 15 min. Plasma was separated and collected. The concentrations of different compounds in the plasma of the rats after administration were measured using LC/MS/MS method, and the pharmacokinetic parameters were calculated according to the curve of the drug concentration-time.
# [2] = target: FXR-LBD (Homo sapiens (Human), UniProt Q96RI1); assay: TR-FRET Farnesoid X Receptor Coactivator Assay; type: biochemical; conditions: TR-FRET farnesoid X receptor protein coactivator activity
# Experimental: Purchasing invitrogen PV4833 kits. The procedure refers to LanthaScreen™ TR-FRET Farnesoid X Receptor Coactivator Assay
# First, the required amount of the compound was weighed and dissolved in 100% DMSO at the maximum concentration of 3000 μM. The solution at the maximum concentration was diluted by 3-fold serial dilution in DMSO to get 10 concentrations;
# Second, the above prepared solutions of different concentrations were diluted to 50-fold with a buffer supplied with the kit, to 2× compound solution, followed by mixing and then 10 μL of the diluted solution was added to a 384 well plate;
# Third, FXR-LBD was diluted with a buffer to 4× solution, and 5 μL of the diluent was added to the 384 well plate of second step;
# Fourth, Fluorescein-SRC2-2 and Tb anti-GST antibody were diluted to 4× Fluorescein-SRC2-2 and Tb anti-GST antibody solution. Then two reagents were mixed together, and 5 μL of the mixture was added to the 384 well plate of third step;
# Finally, the solution of the 384 well above was mixed uniformly by centrifuging, and then incubated at room temperature for 1 h. Then the TR-FRET Endpoint method was used for measuring the solution at wavelengths of 520 nm, 495 nm and 337 nm.
# [3] = target: FXR ligand binding domain (LBD) (Homo sapiens (Human), UniProt Q96RI1); assay: Mammalian one hybrid (M1H) GAL4 reporter gene assay in HEK293 cells; type: cell-based; conditions: GAL4 reporter gene test
# Source text: Mammalian one hybrid technology is also called chimeric receptor gene assay. Based on the GAL4 chimera receptor assay, the activity of compounds which mediated activation of FXR was detected by dual luciferase reporter assay. The methods were as follows: cDNA encoding the FXR ligand binding domain (LBD), the yeast GAL4 DNA binding domain (DBD) and the Renilla luciferase DNA were fused to construct a chimera expression plasmid pBIND-FXR (Promega). […] The plasmid pG5Luc (Promega) was used as the reporter plasmid, containing the GAL4 upstream activation sequence (UAS) and the Firefly luciferase receptor gene. All GAL4 reporter gene assays were done in HEK293 cells. Cells were cultured at 37° C., 5% CO2 under humidified conditions. […] The contents were mixed completely and incubated the mixtures for 15 minutes at room temperature. The volume of the transfection mixture was 2.5 μl/well. Trypsinized and diluted the cell slurry at a density of […] (100 μl/well for 96-well plate). Then added required volume of transfection mixture prepared previously into the cell slurry, and dispensed 100 μl/well of the cell slurry into the 96-well plate and incubated the plate for 24 hours at 37° C., 5% CO2 under humidified conditions. Compounds prediluted in complete medium were added into each well and then incubated at 37° C., 5% CO2 under humidified conditions for 18 hours. The firefly and renilla luciferase signal was assayed by Promega's Dual Luciferase Reporter Assay System.
# The % Activation value was calculated by the following equation: Activation %=[(X−Min)/(Max−Min)]×100%. “X” is the “F/R” value from compounds. “F/R” means “Firefly/Renilla”. “Min” is the mean “F/R” value from no compound control. “Max” is the mean “F/R” value from reference compound control. Finally, the EC50 value of each compounds were calculated by GraphPrism 5.0.
# Chain of FXR ligand binding domain (LBD) (Q96RI1 261-481): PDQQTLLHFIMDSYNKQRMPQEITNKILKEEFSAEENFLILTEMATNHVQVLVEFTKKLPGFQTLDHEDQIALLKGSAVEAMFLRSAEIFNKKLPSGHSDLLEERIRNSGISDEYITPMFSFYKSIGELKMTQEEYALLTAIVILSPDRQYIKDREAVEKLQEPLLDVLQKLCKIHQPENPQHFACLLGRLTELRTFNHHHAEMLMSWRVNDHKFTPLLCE
# Chain of FXR-LBD (Q96RI1 262-486): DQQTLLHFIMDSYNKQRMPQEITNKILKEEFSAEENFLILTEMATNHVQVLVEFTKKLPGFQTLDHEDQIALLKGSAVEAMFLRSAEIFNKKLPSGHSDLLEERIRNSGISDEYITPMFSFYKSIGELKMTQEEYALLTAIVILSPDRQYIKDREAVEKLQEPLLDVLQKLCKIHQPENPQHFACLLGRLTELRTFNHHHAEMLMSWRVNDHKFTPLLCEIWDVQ
smiles,measurement,setting,value
"O=C(O)c1ccc2c(c1)Oc1ccc(OCc3c(-c4c(Cl)cccc4Cl)noc3C3CC3)nc1C=C2F [Example 1, 2-((5-cyclopropyl-3-(2,6-dichlorophenyl)isoxazol-4-yl)methoxy)-10-fluorobenzo[6,7]oxepino[3,2-b]pyridine-7-carboxylic acid]",AUC(0-inf),[1]; iv 1 mg/kg,1540 ng·h/mL
same,AUC(0-t),[1]; iv 1 mg/kg,1540 ng·h/mL
same,Cmax,[1]; iv 1 mg/kg,1890 ng/mL
same,MRT inf,[1]; iv 1 mg/kg,47.5 min
same,Tmax,[1]; iv 1 mg/kg,4.98 min
same,clearance,[1]; iv 1 mg/kg,11.2 mL/min/kg
same,half-life,[1]; iv 1 mg/kg,43.4 min
same,Vd,[1]; iv 1 mg/kg,0.522 L/kg
same,AUC(0-inf),[1]; po 5 mg/kg,4210 ng·h/mL
same,AUC(0-t),[1]; po 5 mg/kg,4180 ng·h/mL
same,Cmax,[1]; po 5 mg/kg,2760 ng/mL
same,MRT inf,[1]; po 5 mg/kg,79.2 min
same,Tmax,[1]; po 5 mg/kg,30 min
same,half-life,[1]; po 5 mg/kg,54.8 min
same,bioavailability,[1],55%
same,pEC50,[2],7.31
"O=C(O)c1ccc2c(c1)Oc1ccc(OCc3c(-c4c(Cl)cccc4Cl)noc3C3CC3)nc1CO2 [Example 2, 2-((5-cyclopropyl-3-(2,6-dichlorophenyl)isoxazol-4-yl)methoxy)-11H-benzo[2,3][1,4]dioxepino[6,5-b]pyridine-7-carboxylic acid]",AUC(0-inf),[1]; iv 1 mg/kg,1150 ng·h/mL
same,AUC(0-t),[1]; iv 1 mg/kg,1150 ng·h/mL
same,Cmax,[1]; iv 1 mg/kg,2060 ng/mL
same,MRT inf,[1]; iv 1 mg/kg,32.9 min
same,Tmax,[1]; iv 1 mg/kg,4.98 min
same,clearance,[1]; iv 1 mg/kg,14.8 mL/min/kg
same,half-life,[1]; iv 1 mg/kg,53 min
same,Vd,[1]; iv 1 mg/kg,0.479 L/kg
same,AUC(0-inf),[1]; po 5 mg/kg,4110 ng·h/mL
same,AUC(0-t),[1]; po 5 mg/kg,4110 ng·h/mL
same,Cmax,[1]; po 5 mg/kg,3640 ng/mL
same,MRT inf,[1]; po 5 mg/kg,55.9 min
same,Tmax,[1]; po 5 mg/kg,30 min
same,half-life,[1]; po 5 mg/kg,42.6 min
same,bioavailability,[1],72%
same,pEC50,[2],8.29
"O=C(O)c1ccc2c(c1)Oc1ccc(OCc3c(-c4c(Cl)cccc4Cl)noc3C3CC3)nc1C1CC21 (centres unmarked) [Example 3, 3-((5-cyclopropyl-3-(2,6-dichlorophenyl)isoxazol-4-yl)methoxy)-1a,10b-dihydro-1H-benzo[6,7]cyclopropa[4,5]oxepino[3,2-b]pyridine-8-carboxylic acid]",pEC50,[2],7.12
"O=C(O)c1cc(F)c2c(c1)Oc1ccc(OCc3c(-c4c(Cl)cccc4Cl)noc3C3CC3)nc1CC2 [Example 4, 2-((5-cyclopropyl-3-(2,6-dichlorophenyl)isoxazol-4-yl)methoxy)-9-fluoro-10,11-dihydrobenzo[6,7]oxepino[3,2-b]pyridine-7-carboxylic acid]",pEC50,[2],7.22
"O=C(O)c1ccc2c(c1)Oc1ccc(OCc3c(-c4c(Cl)cccc4Cl)noc3C3CC3)nc1C(F)=C2 [Example 5, 2-((5-cyclopropyl-3-(2,6-dichlorophenyl)isoxazol-4-yl)methoxy)-11-fluorobenzo[6,7]oxepino[3,2-b]pyridine-7-carboxylic acid]",AUC(0-inf),[1]; iv 1 mg/kg,1580 ng·h/mL
same,AUC(0-t),[1]; iv 1 mg/kg,1580 ng·h/mL
same,Cmax,[1]; iv 1 mg/kg,3040 ng/mL
same,MRT inf,[1]; iv 1 mg/kg,32.9 min
same,Tmax,[1]; iv 1 mg/kg,4.98 min
same,clearance,[1]; iv 1 mg/kg,10.6 mL/min/kg
same,half-life,[1]; iv 1 mg/kg,40.9 min
same,Vd,[1]; iv 1 mg/kg,0.344 L/kg
same,AUC(0-inf),[1]; po 5 mg/kg,7480 ng·h/mL
same,AUC(0-t),[1]; po 5 mg/kg,7450 ng·h/mL
same,Cmax,[1]; po 5 mg/kg,6430 ng/mL
same,MRT inf,[1]; po 5 mg/kg,64.2 min
same,Tmax,[1]; po 5 mg/kg,30 min
same,half-life,[1]; po 5 mg/kg,50.3 min
same,bioavailability,[1],95%
"O=C(O)c1cc2c(cc1F)CCc1nc(OCc3c(-c4c(Cl)cccc4Cl)noc3C3CC3)ccc1O2 [Example 6, 2-((5-cyclopropyl-3-(2,6-dichlorophenyl)isoxazol-4-yl)methoxy)-8-fluoro-10,11-dihydrobenzo[6,7]oxepino[3,2-b]pyridine-7-carboxylic acid]",pEC50,[2],7.51
"O=C(O)c1ccc2c(c1)Oc1ccc(OCc3c(-c4c(Cl)cccc4Cl)noc3C3CC3)nc1C(C(F)(F)F)=C2 [Example 7, 2-((5-cyclopropyl-3-(2,6-dichlorophenyl)isoxazol-4-yl)methoxy)-11-(trifluoromethyl)benzo[6,7]oxepino[3,2-b]pyridine-7-carboxylic acid]",pEC50,[3],7.96
"O=C(O)c1ccc2c(c1)Oc1ccc(OCc3c(-c4c(Cl)cccc4Cl)noc3C3CC3)nc1C(C(F)(F)F)C2 (centres unmarked) [Example 8, 2-((5-cyclopropyl-3-(2,6-dichlorophenyl)isoxazol-4-yl)methoxy)-11-(trifluoromethyl)-10,11-dihydrobenzo[6,7]oxepino[3,2-b]pyridine-7-carboxylic acid]",pEC50,[3],7.59
"O=C(O)c1ccc2c(c1)Oc1ccc(OCc3c(-c4c(Cl)cccc4Cl)noc3C3CC3)nc1C1(CC1)C2 [Example 9, 2-((5-cyclopropyl-3-(2,6-dichlorophenyl)isoxazol-4-yl)methoxy)-10H-spiro[benzo[6,7]oxepino[3,2-b]pyridine-11,1′-cyclopropane]-7-carboxylic acid]",pEC50,[3],8.70
"O=C(O)c1ccc2c(c1)Oc1ccc(OCc3c(-c4c(Cl)cccc4Cl)noc3C3CC3)nc1C(F)(F)C2 [Example 10, 2-((5-cyclopropyl-3-(2,6-dichlorophenyl)isoxazol-4-yl)methoxy)-11,11-difluoro-10,11-dihydrobenzo[6,7]oxepino[3,2-b]pyridine-7-carboxylic acid]",pEC50,[3],7.92
same,AUC(0-inf),[1]; iv 1 mg/kg,1330 ng·h/mL
same,AUC(0-t),[1]; iv 1 mg/kg,1330 ng·h/mL
same,Cmax,[1]; iv 1 mg/kg,3020 ng/mL
same,MRT inf,[1]; iv 1 mg/kg,25.7 min
same,Tmax,[1]; iv 1 mg/kg,4.98 min
same,clearance,[1]; iv 1 mg/kg,12.6 mL/min/kg
same,half-life,[1]; iv 1 mg/kg,47.6 min
same,Vd,[1]; iv 1 mg/kg,0.322 L/kg
same,AUC(0-inf),[1]; po 5 mg/kg,5840 ng·h/mL
same,AUC(0-t),[1]; po 5 mg/kg,5790 ng·h/mL
same,Cmax,[1]; po 5 mg/kg,3760 ng/mL
same,MRT inf,[1]; po 5 mg/kg,82.8 min
same,Tmax,[1]; po 5 mg/kg,30 min
same,half-life,[1]; po 5 mg/kg,57.4 min
same,bioavailability,[1],88%
"O=C(O)c1ccc2c(c1)Oc1ccc(OCc3c(-c4c(Cl)cccc4Cl)noc3C3CC3)nc1C(F)(F)C2O (centres unmarked) [Example 12, 2-((5-cyclopropyl-3-(2,6-dichlorophenyl)isoxazol-4-yl)methoxy)-11,11-difluoro-10-hydroxy-10,11-dihydrobenzo[6,7]oxepino[3,2-b]pyridine-7-carboxylic acid]",pEC50,[3],6.87
"CC1=Cc2ccc(C(=O)O)cc2Oc2ccc(OCc3c(C4CC4)cnn3-c3c(Cl)cccc3Cl)nc21 [Example 15, 2-((4-cyclopropyl-1-(2,6-dichlorophenyl)-1H-pyrazol-5-yl)methoxy)-11-methylbenzo[6,7]oxepino[3,2-b]pyridine-7-carboxylic acid]",pEC50,[3],7.89
"O=C(O)c1ccc2c(c1)Oc1ccc(OCc3c(-c4c(Cl)cccc4Cl)noc3C3CC3)nc1C(C1CC1)=C2 [Example 16, 11-cyclopropyl-2-((5-cyclopropyl-3-(2,6-dichlorophenyl)isoxazol-4-yl)methoxy)benzo[6,7]oxepino[3,2-b]pyridine-7-carboxylic acid]",pEC50,[3],8.30
"O=C(O)c1ccc2c(c1)Oc1ccc(OCc3c(-c4c(Cl)cccc4Cl)noc3C3CC3)nc1C(C1CC1)C2 (centres unmarked) [Example 17, 11-cyclopropyl-2-((5-cyclopropyl-3-(2,6-dichlorophenyl)isoxazol-4-yl)methoxy)-10,11-dihydrobenzo[6,7]oxepino[3,2-b]pyridine-7-carboxylic acid]",pEC50,[3],7.19
"CC1=Cc2nc(OCc3c(-c4c(Cl)cccc4Cl)noc3C3CC3)ccc2Oc2cc(C(=O)O)ccc21 [Example 18, 2-((5-cyclopropyl-3-(2,6-dichlorophenyl)isoxazol-4-yl)methoxy)-10-methylbenzo[6,7]oxepino[3,2-b]pyridine-7-carboxylic acid]",pEC50,[3],7.03
